According to US20120291159A1, “Azoline Compounds for Combating Invertebrate Pests” (BASF SE, priority 2009, published 2012):
Structures can show the parent of a compound that is named as a salt.

Assays:
Format in all cases: in vivo
[1] = test system: Orchid Thrips (Dichromothrips corbetti); assay: Orchid thrips floral-immersion test (B.5); settings: 500 ppm, adult thrips, after 4 days
Protocol: B.5 Orchid Thrips (Dichromothrips corbetti)
Dichromothrips corbetti adults used for bioassay are obtained from a colony maintained continuously under laboratory conditions. […]
Thrips potency of each compound is evaluated by using a floral-immersion technique. Plastic petri dishes are used as test arenas. All petals of individual, intact orchid flowers are dipped into treatment solution and allowed to dry. Treated flowers are placed into individual petri dishes along with 10-15 adult thrips. The petri dishes are then covered with lids. All test arenas are held under continuous light and a temperature of about 28° C. for duration of the assay. After 4 days, the numbers of live thrips are counted on each flower, and along inner walls of each petri dish. The level of thrips mortality is extrapolated from pre-treatment thrips numbers.

[2] = test system: Vetch Aphid (Megoura viciae); assay: Vetch aphid leaf disk microtiter test (B.9); settings: foliar, 120 h, adult aphids on broad bean leaf disks, 5 days, read-out: mortality in comparison with untreated controls
Protocol: B.9 Vetch Aphid (Megoura viciae)
For evaluating control of vetch aphid (Megoura viciae) through contact or systemic means the test unit consisted of 24-well-microtiter plates containing broad bean leaf disks.
The compounds were formulated using a solution containing 75% v/v water and 25% v/v DMSO. Different concentrations of formulated compounds were sprayed onto the leaf disks at 2.5 μl, using a custom built micro atomizer, at two replications.
After application, the leaf disks were air-dried and 5-8 adult aphids placed on the leaf disks inside the microtiter plate wells. The aphids were then allowed to suck on the treated leaf disks and incubated at about 23±1° C. and about 50±5% relative humidity for 5 days. Aphid mortality and fecundity was then visually assessed.

[3] = test system: Boll Weevil (Anthonomus grandis); assay: Boll weevil microtiter diet test (B.11); settings: 120 h, egg and larval mortality after 5 days, read-out: mortality in comparison with untreated controls
Protocol: B.11 Boll Weevil (Anthonomus grandis)
For evaluating control of boll weevil (Anthonomus grandis) the test unit consisted of 24-well-microtiter plates containing an insect diet and 20-30 A. grandis eggs.
The compounds were formulated using a solution containing 75% v/v water and 25% v/v DMSO. Different concentrations of formulated compounds were sprayed onto the insect diet at 20 μl, using a custom built micro atomizer, at two replications.
After application, microtiter plates were incubated at about 23±1° C. and about 50±5% relative humidity for 5 days. Egg and larval mortality was then visually assessed.

[4] = test system: Mediterranean Fruitfly (Ceratitis capitata); assay: Mediterranean fruitfly microtiter diet test (B.4); settings: 120 h, egg and larval mortality after 5 days, read-out: mortality in comparison with untreated controls
Protocol: B.4 Mediterranean Fruitfly (Ceratitis capitata)
For evaluating control of Mediterranean fruitfly (Ceratitis capitata) the test unit consisted of microtiter plates containing an insect diet and 50-80 C. capitata eggs. The compounds were formulated using a solution containing 75% v/v water and 25% v/v DMSO. Different concentrations of formulated compounds were sprayed onto the insect diet at 5 μl, using a custom built micro atomizer, at two replications. After application, microtiter plates were incubated at about 28±1° C. and about 80±5% relative humidity for 5 days. Egg and larval mortality was then visually assessed.

[5] = test system: Silverleaf Whitefly (Bemisia argentifoli); assay: Silverleaf whitefly cotton plant spray test (B.6); settings: 300 ppm; whitefly adults on sprayed cotton, 3 days after treatment
Excerpt: B.6 Silverleaf Whitefly (Bemisia argentifoli)
(§1) The active compounds were formulated in cyclohexanone as a 10,000 ppm solution supplied in tubes. The tubes were inserted into an automated electrostatic sprayer equipped with an atomizing nozzle and they served as stock solutions for which lower dilutions were made in 50% acetone:50% water (v/v). A nonionic surfactant (Kinetic®) was included in the solution at a volume of 0.01% (v/v).
Cotton plants at the cotyledon stage (one plant per pot) were sprayed by an automated electrostatic plant sprayer equipped with an atomizing spray nozzle. The plants were dried in the sprayer fume hood and then removed from the sprayer. Each pot was placed into a plastic cup and about 10 to 12 whitefly adults (approximately 3-5 days old) were introduced. The insects were collected using an aspirator and a nontoxic Tygon® tubing connected to a barrier pipette tip. The tip, containing the collected insects, was then gently inserted into the soil containing the treated plant, allowing insects to crawl out of the tip to reach the foliage for feeding. Cups were covered with a reusable screened lid. […] Mortality was assessed 3 days after treatment, compared to untreated control plants.

[6] = test system: Cowpea Aphid (Aphis craccivora); assay: Cowpea aphid spray test on potted cowpea plants (B.2); settings: 100 ppm; sprayed cowpea plants; assessed after 24, 72 and 120 hours
Protocol: If not otherwise specified the test solutions were prepared as follow:
The active compound was dissolved at the desired concentration in a mixture of 1:1 (vol:vol) distilled water:acteon. The test solution was prepared the day it was used and in general at concentrations of […] (wt/vol).
B.2 Cowpea Aphid (Aphis craccivora)
Potted cowpea plants colonized with approximately 100-150 aphids of various stages were sprayed after the pest population has been recorded. Population reduction was assessed after 24, 72, and 120 hours.

[7] = test system: Tobacco Budworm (Heliothis virescens); assay: Tobacco budworm cotton plant spray test (B.10); settings: 2500 ppm; larvae on sprayed cotton, 4 days after treatment
Protocol: B.10 Tobacco Budworm (Heliothis virescens) I
as §1
Cotton plants were grown 2 plants to a pot and selected for treatment at the cotyledon stage. Test solutions were sprayed onto the foliage by an automated electrostatic plant sprayer equipped with an atomizing spray nozzle. The plants were dried in the sprayer fume hood and then removed from the sprayer. Each pot was placed into perforated plastic bags with a zip closure. About 10 to 11 budworm larvae were placed into the bag and the bags zipped closed. Test plants were maintained in a growth room at about 25° C. and about 20-40% relative humidity for 4 days, avoiding direct exposure to fluorescent light (24 hour photoperiod) to prevent trapping of heat inside the bags. Mortality and reduced feeding were assessed 4 days after treatment, compared to untreated control plants.

| SMILES | mortality at 2500 ppm [2] | mortality at 2500 ppm [3] | mortality at 2500 ppm [4] | also measured |
| --- | --- | --- | --- | --- |
| O=C(NCC(F)(F)F)c1cc(C2=NOC(c3cc(Cl)cc(Cl)c3)(C(F)(F)F)C2)ccn1 (centres unmarked) [compound 2-3] | – | – | – | mortality in comparison with untreated controls [1]: at least 75% |
| NCc1cccc(C2=NOC(c3cc(Cl)cc(Cl)c3)(C(F)(F)F)C2)c1 (centres unmarked) [compound 3-1, 3-[5-(3,5-dichloro-phenyl)-5-trifluoromethyl-4,5-dihydro-isoxazol-3-yl]-benzylamine hydrochloride] | ≥ 75% | ≥ 75% | ≥ 75% | – |
| CCC(=O)NCc1cccc(C2=NOC(c3cc(Cl)cc(Cl)c3)(C(F)(F)F)C2)c1 (centres unmarked) [compound 3-2, N-{3-[5-(3,5-dichloro-phenyl)-5-trifluoromethyl-4,5-dihydro-isoxazol-3-yl]-benzyl}-propionamide] | ≥ 75% | ≥ 75% | ≥ 75% | – |
| CC(=O)NCc1cccc(C2=NOC(c3cc(Cl)cc(Cl)c3)(C(F)(F)F)C2)c1 (centres unmarked) [compound 3-3, N-{3-[5-(3,5-dichloro-phenyl)-5-trifluoromethyl-4,5-dihydro-isoxazol-3-yl]-benzyl}-acetamide] | ≥ 75% | ≥ 75% | ≥ 75% | – |
| CSCC(=O)NCc1cccc(C2=NOC(c3cc(Cl)cc(Cl)c3)(C(F)(F)F)C2)c1 (centres unmarked) [compound 3-4, N-{3-[5-(3,5-dichloro-phenyl)-5-trifluoromethyl-4,5-dihydro-isoxazol-3-yl]-benzyl}-2-methylsulfanyl-acetamide] | – | – | ≥ 75% | – |
| CCCC(=O)NCc1cccc(C2=NOC(c3cc(Cl)cc(Cl)c3)(C(F)(F)F)C2)c1 (centres unmarked) [compound 3-5, N-{3-[5-(3,5-dichloro-phenyl)-5-trifluoromethyl-4,5-dihydro-isoxazol-3-yl]-benzyl}-butyramide] | ≥ 75% | ≥ 75% | ≥ 75% | – |
| CCCC(=O)OCc1cccc(C2=NOC(c3cc(Cl)cc(Cl)c3)(C(F)(F)F)C2)c1 (centres unmarked) [compound 3-9] | – | – | – | mortality in comparison with untreated controls [5]: at least 75% |
| CN1CCC(Oc2cccc(C3=NOC(c4cc(Cl)cc(Cl)c4)(C(F)(F)F)C3)c2)C1=O (centres unmarked) [compound 5-1] | – | – | – | mortality in comparison with untreated controls [6]: at least 75% |
| [O-][S+](c1cccc(C2=NOC(c3cc(Cl)cc(Cl)c3)(C(F)(F)F)C2)c1)C(F)(F)F (centres unmarked) [compound 6-2] | – | – | – | mortality in comparison with untreated controls [7]: at least 75% |
